Experimental findings from paper PMC4697445 (Journal of medicinal chemistry, 2015) are described below.

One series in a line: Biodistribution in rats. Particulars: rat; for in vivo metabolic defluorination (bone activity): 5 to 60 min p.i.; for blood uptake / bone uptake / brain uptake / fat uptake / kidney uptake / liver uptake / muscle uptake: iv, mean ± SD, n = 4. Type of series: in vivo, male Sprague-Dawley rats.
The target of a further series is PDE10A (Rattus norvegicus, UniProt Q9QYJ6). The conditions noted are these: by 30 min p.i.
Sequence of PDE10A (Q9QYJ6 whole entry): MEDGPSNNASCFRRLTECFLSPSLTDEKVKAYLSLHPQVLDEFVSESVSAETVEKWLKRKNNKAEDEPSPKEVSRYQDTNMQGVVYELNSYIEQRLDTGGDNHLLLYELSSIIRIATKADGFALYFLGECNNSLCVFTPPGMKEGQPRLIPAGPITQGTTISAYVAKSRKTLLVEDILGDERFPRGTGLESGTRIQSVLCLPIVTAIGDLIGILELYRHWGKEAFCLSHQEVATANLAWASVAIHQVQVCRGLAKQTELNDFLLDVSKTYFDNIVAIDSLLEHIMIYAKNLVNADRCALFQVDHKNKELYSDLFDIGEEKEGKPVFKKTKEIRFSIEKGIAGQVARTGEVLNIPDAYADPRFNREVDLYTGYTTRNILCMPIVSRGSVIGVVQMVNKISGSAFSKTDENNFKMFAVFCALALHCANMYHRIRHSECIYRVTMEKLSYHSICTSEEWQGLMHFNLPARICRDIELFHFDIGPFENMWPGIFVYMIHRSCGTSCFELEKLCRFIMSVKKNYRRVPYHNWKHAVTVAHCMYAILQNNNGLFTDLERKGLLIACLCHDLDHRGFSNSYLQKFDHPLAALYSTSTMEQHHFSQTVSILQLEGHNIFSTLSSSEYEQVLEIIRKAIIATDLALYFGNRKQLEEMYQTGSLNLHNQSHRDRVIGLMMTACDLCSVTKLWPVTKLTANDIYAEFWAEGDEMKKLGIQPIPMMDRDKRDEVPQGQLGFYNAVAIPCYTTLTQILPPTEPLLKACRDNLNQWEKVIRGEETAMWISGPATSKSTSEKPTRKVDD

For the compound `Cn1cc(-c2ccncc2)c(-c2ccc(OCc3cc(F)c4ccccc4n3)cc2)n1` [Compound 18a, 4-Fluoro-2-((4-(1-methyl-4-(pyridin-4-yl)-1H-pyrazol-3-yl)-phenoxy)methyl)quinoline], the “in vivo metabolic defluorination (bone activity)” value (“in vivo metabolic defluorination” below) in “Biodistribution in rats” was “undergo in vivo metabolic defluorination in rodents”.

As to `Cn1cc(-c2ccncc2)c(-c2ccc(OCc3cc(CF)c4ccccc4n3)cc2)n1` [Compound 18b, 4-(Fluoromethyl)-2-((4-(1-methyl-4-(pyridin-4-yl)-1H-pyrazol-3-yl)phenoxy)methyl) quinoline], in “Biodistribution in rats”, the “in vivo metabolic defluorination” value was “undergo in vivo metabolic defluorination in rodents”.

As to `Cn1cc(-c2ccncc2)c(-c2ccc(OCc3cc(CCCF)c4ccccc4n3)cc2)n1` [Compound 18c, 4-(3-Fluoropropyl)-2-((4-(1-methyl-4-(pyridin-4-yl)-1H-pyrazol-3-yl)phenoxy)methyl) quinoline], in “Biodistribution in rats”, the “in vivo metabolic defluorination” value is “undergo in vivo metabolic defluorination in rodents”.

As for `Cn1cc(-c2ccncc2)c(-c2ccc(OCc3cc([18F])c4ccccc4n3)cc2)n1` [[^18F]18a, 4-(Fluoro-^18F)-2-((4-(1-methyl-4-(pyridin-4-yl)-1H-pyrazol-3-yl)phenoxy)methyl)quinoline], in “Biodistribution in rats” (5 min p.i.), the blood uptake came out at 0.353 ± 0.063 %ID/g, the bone uptake is reported as 0.522 ± 0.116 %ID/g, the brain uptake worked out at 0.410 ± 0.063 %ID/g and the fat uptake is reported as 0.404 ± 0.102 %ID/g. Moreover, in the series “Biodistribution in rats” (5 min p.i.), the kidney uptake was determined as 1.887 ± 0.296 %ID/g, the liver uptake is on record as 6.87 ± 1.27 %ID/g and the muscle uptake was 0.339 ± 0.053 %ID/g. In “Biodistribution in rats” (30 min p.i.), this compound yielded a blood uptake of 0.376 ± 0.033 %ID/g, a bone uptake of 4.035 ± 0.153 %ID/g, a brain uptake of 0.191 ± 0.036 %ID/g and a fat uptake of 0.576 ± 0.154 %ID/g. Further, in the series “Biodistribution in rats” (30 min p.i.), the kidney uptake amounted to 1.034 ± 0.131 %ID/g, the liver uptake is recorded as 3.00 ± 0.91 %ID/g and the muscle uptake stood at 0.236 ± 0.019 %ID/g. In “Biodistribution in rats” (60 min p.i.), this compound came in with a blood uptake of 0.150 ± 0.021 %ID/g, a bone uptake of 6.300 ± 0.314 %ID/g, a brain uptake of 0.125 ± 0.009 %ID/g and a fat uptake of 0.477 ± 0.099 %ID/g. In the series “Biodistribution in rats” (60 min p.i.), this compound returned a kidney uptake of 0.533 ± 0.119 %ID/g, a liver uptake of 1.60 ± 0.87 %ID/g and a muscle uptake of 0.092 ± 0.010 %ID/g. Also, the “ratio of activity in the striatum versus nontarget brain regions” value (from here on “ratio of activity”) at PDE10A is over 2 fold.

In “Biodistribution in rats” (5 min p.i.), `Cn1cc(-c2ccncc2)c(-c2ccc(OCc3cc(C[18F])c4ccccc4n3)cc2)n1` [[^18F]18b, 4-((Fluoro-^18F)methyl)-2-((4-(1-methyl-4-(pyridin-4-yl)-1H-pyrazol-3-yl)phenoxy)methyl) quinoline] showed a blood uptake of 0.471 ± 0.040 %ID/g, a bone uptake of 0.421 ± 0.063 %ID/g, a brain uptake of 0.128 ± 0.012 %ID/g and a fat uptake of 0.343 ± 0.153 %ID/g. In the series “Biodistribution in rats” (5 min p.i.), this compound displayed a kidney uptake of 1.799 ± 0.207 %ID/g, a liver uptake of 10.16 ± 1.86 %ID/g and a muscle uptake of 0.227 ± 0.042 %ID/g. In the series “Biodistribution in rats” (30 min p.i.), the blood uptake came out at 0.416 ± 0.062 %ID/g, the bone uptake amounted to 4.055 ± 1.305 %ID/g, the brain uptake is 0.094 ± 0.023 %ID/g and the fat uptake came to 0.352 ± 0.081 %ID/g. In “Biodistribution in rats” (30 min p.i.), this compound had a kidney uptake of 1.351 ± 0.216 %ID/g, a liver uptake of 4.01 ± 1.34 %ID/g and a muscle uptake of 0.174 ± 0.042 %ID/g. For the same compound, in the series “Biodistribution in rats” (60 min p.i.), the blood uptake is 0.201 ± 0.026 %ID/g, the bone uptake is 5.620 ± 1.132 %ID/g, the brain uptake was found to be 0.069 ± 0.008 %ID/g and the fat uptake stood at 0.222 ± 0.029 %ID/g. Moreover, in “Biodistribution in rats” (60 min p.i.), the kidney uptake was determined as 0.573 ± 0.134 %ID/g, the liver uptake worked out at 3.10 ± 0.61 %ID/g and the muscle uptake was 0.107 ± 0.032 %ID/g. Also, the “ratio of activity” value at PDE10A is given as over 2 fold.

In “Biodistribution in rats” (5 min p.i.), `Cn1cc(-c2ccncc2)c(-c2ccc(OCc3cc(CCC[18F])c4ccccc4n3)cc2)n1` [[^18F]18c, 4-(3-(Fluoro-^18F)propyl)-2-((4-(1-methyl-4-(pyridin-4-yl)-1H-pyrazol-3-yl)phenoxy)methyl) quinoline] displayed a blood uptake of 0.459 ± 0.049 %ID/g, a bone uptake of 0.222 ± 0.014 %ID/g, a brain uptake of 0.114 ± 0.015 %ID/g and a fat uptake of 0.220 ± 0.100 %ID/g. In the series “Biodistribution in rats” (5 min p.i.), this compound displayed a kidney uptake of 2.471 ± 0.487 %ID/g, a liver uptake of 9.99 ± 1.27 %ID/g and a muscle uptake of 0.223 ± 0.067 %ID/g. For the same compound, in “Biodistribution in rats” (30 min p.i.), the bone uptake amounted to 1.418 ± 0.182 %ID/g, the brain uptake came to 0.046 ± 0.006 %ID/g, the fat uptake is recorded as 0.491 ± 0.035 %ID/g and the kidney uptake is on record as 1.364 ± 0.077 %ID/g. In “Biodistribution in rats” (30 min p.i.), this compound gave a liver uptake of 5.67 ± 0.73 %ID/g and a muscle uptake of 0.178 ± 0.016 %ID/g. Besides, in the series “Biodistribution in rats” (60 min p.i.), the bone uptake came out at 2.037 ± 0.303 %ID/g, the brain uptake turned out to be 0.026 ± 0.005 %ID/g, the fat uptake was 0.368 ± 0.077 %ID/g and the kidney uptake worked out at 1.216 ± 0.180 %ID/g. Moreover, in the series “Biodistribution in rats” (60 min p.i.), the liver uptake turned out to be 6.79 ± 2.49 %ID/g and the muscle uptake is recorded as 0.103 ± 0.030 %ID/g. For the same compound, the “ratio of activity” value on PDE10A is given as over 2 fold.

On to `Cn1cc(-c2ccncc2)c(-c2ccc(OCc3cc(COCC[18F])c4ccccc4n3)cc2)n1` [[^18F]18e, 4-((2-(Fluoro-^18F)ethoxy)methyl)-2-((4-(1-methyl-4-(pyridin-4-yl)-1H-pyrazol-3-yl)phenoxy)methyl)quinoline], for which the “in vivo metabolic defluorination” value in “Biodistribution in rats” is on record as “appeared more stable to in vivo defluorination”. In “Biodistribution in rats” (5 min p.i.), this compound returned a blood uptake of 0.440 ± 0.038 %ID/g, a bone uptake of 0.133 ± 0.028 %ID/g, a brain uptake of 0.213 ± 0.039 %ID/g and a fat uptake of 0.139 ± 0.031 %ID/g. In the series “Biodistribution in rats” (5 min p.i.), this compound showed a kidney uptake of 0.981 ± 0.163 %ID/g, a liver uptake of 3.99 ± 0.82 %ID/g and a muscle uptake of 0.155 ± 0.040 %ID/g. In the series “Biodistribution in rats” (30 min p.i.), this compound gave a blood uptake of 0.424 ± 0.074 %ID/g, a bone uptake of 0.170 ± 0.030 %ID/g, a brain uptake of 0.353 ± 0.021 %ID/g and a fat uptake of 0.139 ± 0.037 %ID/g. In the series “Biodistribution in rats” (30 min p.i.), the kidney uptake was 0.632 ± 0.123 %ID/g, the liver uptake was 0.987 ± 0.038 %ID/g and the muscle uptake came to 0.265 ± 0.117 %ID/g. Moreover, in the series “Biodistribution in rats” (60 min p.i.), the blood uptake worked out at 0.401 ± 0.029 %ID/g, the bone uptake is on record as 0.337 ± 0.072 %ID/g, the brain uptake turned out to be 0.343 ± 0.033 %ID/g and the fat uptake turned out to be 0.066 ± 0.018 %ID/g. In “Biodistribution in rats” (60 min p.i.), this compound came in with a kidney uptake of 0.485 ± 0.045 %ID/g, a liver uptake of 0.554 ± 0.064 %ID/g and a muscle uptake of 0.228 ± 0.058 %ID/g.

Take `Cn1cc(-c2ccncc2)c(-c2ccc(OCc3cc(OCCOCCOCC[18F])c4ccccc4n3)cc2)n1` [[^18F]18g]: in the series “Biodistribution in rats”, the “in vivo metabolic defluorination” value is recorded as “appeared more stable to in vivo defluorination”. In “Biodistribution in rats” (5 min p.i.), this compound returned a blood uptake of 0.699 ± 0.090 %ID/g, a bone uptake of 0.487 ± 0.044 %ID/g, a brain uptake of 0.353 ± 0.052 %ID/g and a fat uptake of 0.225 ± 0.086 %ID/g. In “Biodistribution in rats” (5 min p.i.), this compound showed a kidney uptake of 5.969 ± 0.744 %ID/g, a liver uptake of 4.74 ± 1.10 %ID/g and a muscle uptake of 0.419 ± 0.090 %ID/g. Besides, in “Biodistribution in rats” (30 min p.i.), the blood uptake was 0.771 ± 0.061 %ID/g, the bone uptake is given as 0.441 ± 0.049 %ID/g, the brain uptake amounted to 0.509 ± 0.038 %ID/g and the fat uptake turned out to be 0.254 ± 0.051 %ID/g. In “Biodistribution in rats” (30 min p.i.), this compound registered a kidney uptake of 1.793 ± 0.291 %ID/g, a liver uptake of 1.53 ± 0.49 %ID/g and a muscle uptake of 0.488 ± 0.086 %ID/g. For the same compound, in the series “Biodistribution in rats” (60 min p.i.), the blood uptake worked out at 0.646 ± 0.045 %ID/g, the bone uptake is recorded as 0.490 ± 0.035 %ID/g, the brain uptake is 0.421 ± 0.028 %ID/g and the fat uptake stood at 0.123 ± 0.021 %ID/g. In the series “Biodistribution in rats” (60 min p.i.), the kidney uptake is listed as 1.037 ± 0.170 %ID/g, the liver uptake came to 0.527 ± 0.068 %ID/g and the muscle uptake is listed as 0.379 ± 0.027 %ID/g.
